Test results reported in the NIST ThermoML archive (doi:10.1016/j.jct.2017.11.015).
Numbers after ± are expanded uncertainties.

Key:
[1] = molar heat capacity at constant pressure; settings: 101.33 kPa, Crystal, Small sample (50 mg) DSC
[2] = molar heat capacity at constant pressure; an = ratio of the nth substance listed; settings: 100 kPa, Crystal of intercomponent compound 1, Small sample (50 mg) DSC, a2 = 25

SMILES: [Bi+3].[Bi+3].[O-2].[O-2].[O-2] [bismuth oxide]
- molar heat capacity at constant pressure ([1]; 333 K): 115.4 ± 3.8 J/K/mol
- molar heat capacity at constant pressure ([1]; 353 K): 117 ± 3.9 J/K/mol
- molar heat capacity at constant pressure ([1]; 403 K): 120.1 ± 4 J/K/mol
- molar heat capacity at constant pressure ([1]; 453 K): 122.4 ± 4.1 J/K/mol
- molar heat capacity at constant pressure ([1]; 503 K): 124.6 ± 4.1 J/K/mol
- molar heat capacity at constant pressure ([1]; 553 K): 126.5 ± 4.2 J/K/mol
- molar heat capacity at constant pressure ([1]; 603 K): 128 ± 4.2 J/K/mol
- molar heat capacity at constant pressure ([1]; 653 K): 129.7 ± 4.3 J/K/mol
- molar heat capacity at constant pressure ([1]; 703 K): 131.4 ± 4.4 J/K/mol
- molar heat capacity at constant pressure ([1]; 753 K): 132.7 ± 4.4 J/K/mol
- molar heat capacity at constant pressure ([1]; 778 K): 133.2 ± 4.4 J/K/mol
- molar heat capacity at constant pressure ([1]; 803 K): 133.3 ± 4.4 J/K/mol
- molar heat capacity at constant pressure ([1]; 813 K): 133.5 ± 4.4 J/K/mol

SMILES: [Fe+3].[Fe+3].[O-2].[O-2].[O-2] [ferric oxide] + [Bi+3].[Bi+3].[O-2].[O-2].[O-2]
- molar heat capacity at constant pressure ([2]; 308 K): 1355.9 ± 54 J/K/mol
- molar heat capacity at constant pressure ([2]; 353 K): 1430.1 ± 54 J/K/mol
- molar heat capacity at constant pressure ([2]; 403 K): 1482.3 ± 54 J/K/mol
- molar heat capacity at constant pressure ([2]; 453 K): 1520.3 ± 54 J/K/mol
- molar heat capacity at constant pressure ([2]; 503 K): 1543.9 ± 54 J/K/mol
- molar heat capacity at constant pressure ([2]; 553 K): 1563.9 ± 55 J/K/mol
- molar heat capacity at constant pressure ([2]; 603 K): 1587.1 ± 55 J/K/mol
- molar heat capacity at constant pressure ([2]; 653 K): 1610.4 ± 55 J/K/mol
- molar heat capacity at constant pressure ([2]; 703 K): 1628.1 ± 55 J/K/mol
- molar heat capacity at constant pressure ([2]; 753 K): 1644.7 ± 55 J/K/mol
- molar heat capacity at constant pressure ([2]; 803 K): 1658.4 ± 55 J/K/mol
- molar heat capacity at constant pressure ([2]; 818 K): 1662.7 ± 55 J/K/mol
